Laboratory results published in ChEMBL document CHEMBL5715936, “Selective Itk inhibitors block T-cell activation and murine lung inflammation” (Biochemistry, 2004).
Active and inactive are the calls of the source. No cut-off for these calls is given here.

How the values were obtained:
[1] = biological target: T1, Tyrosine-protein kinase ITK/TSK (Homo sapiens) (UniProt Q08881); assay: Inhibition of Itk in human Jurkat T cells assessed as inhibition of tyrosine phosphorylation with 145 kDa molecular weight at 0.1 to 10 uM incubated for 20 mins in presence of CD3 antibody G19-4 by Western blotting analysis; assay type: cell-based; settings: dose 0.1-10 µM
T1 sequence (whole entry): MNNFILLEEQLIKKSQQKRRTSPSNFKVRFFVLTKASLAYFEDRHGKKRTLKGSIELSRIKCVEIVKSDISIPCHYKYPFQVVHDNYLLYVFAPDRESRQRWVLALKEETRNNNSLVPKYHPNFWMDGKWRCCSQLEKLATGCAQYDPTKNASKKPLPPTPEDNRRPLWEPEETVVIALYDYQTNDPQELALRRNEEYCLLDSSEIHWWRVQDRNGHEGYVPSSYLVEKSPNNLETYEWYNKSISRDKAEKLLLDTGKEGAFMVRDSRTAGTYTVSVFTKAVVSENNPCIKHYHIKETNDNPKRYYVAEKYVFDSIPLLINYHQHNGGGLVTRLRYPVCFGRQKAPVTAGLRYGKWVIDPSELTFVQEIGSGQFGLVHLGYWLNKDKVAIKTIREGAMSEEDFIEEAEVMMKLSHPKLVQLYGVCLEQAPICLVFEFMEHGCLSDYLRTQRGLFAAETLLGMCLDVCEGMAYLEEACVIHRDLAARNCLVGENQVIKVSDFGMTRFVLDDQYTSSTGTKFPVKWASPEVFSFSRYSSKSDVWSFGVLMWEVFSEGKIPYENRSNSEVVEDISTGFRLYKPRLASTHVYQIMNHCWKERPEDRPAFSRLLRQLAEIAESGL

[2] = biological target: T1, Tyrosine-protein kinase ITK/TSK (Homo sapiens); assay: Inhibition of Itk in EGF-stimulated human A549 cells assessed as reduction in PLCgamma1 phosphorylation at <=10 uM incubated for 20 mins by Western blotting analysis; assay type: cell-based
[3] = biological target: Insulin receptor (Homo sapiens, UniProt P06213); assay: Inhibition of IR (unknown origin) using GST-SLP-76 as peptide substrate incubated for 10 mins in presence of [gamma-33P]ATP by scintillation counter assay
Insulin receptor, sequence (P06213 28-758 limits assumed): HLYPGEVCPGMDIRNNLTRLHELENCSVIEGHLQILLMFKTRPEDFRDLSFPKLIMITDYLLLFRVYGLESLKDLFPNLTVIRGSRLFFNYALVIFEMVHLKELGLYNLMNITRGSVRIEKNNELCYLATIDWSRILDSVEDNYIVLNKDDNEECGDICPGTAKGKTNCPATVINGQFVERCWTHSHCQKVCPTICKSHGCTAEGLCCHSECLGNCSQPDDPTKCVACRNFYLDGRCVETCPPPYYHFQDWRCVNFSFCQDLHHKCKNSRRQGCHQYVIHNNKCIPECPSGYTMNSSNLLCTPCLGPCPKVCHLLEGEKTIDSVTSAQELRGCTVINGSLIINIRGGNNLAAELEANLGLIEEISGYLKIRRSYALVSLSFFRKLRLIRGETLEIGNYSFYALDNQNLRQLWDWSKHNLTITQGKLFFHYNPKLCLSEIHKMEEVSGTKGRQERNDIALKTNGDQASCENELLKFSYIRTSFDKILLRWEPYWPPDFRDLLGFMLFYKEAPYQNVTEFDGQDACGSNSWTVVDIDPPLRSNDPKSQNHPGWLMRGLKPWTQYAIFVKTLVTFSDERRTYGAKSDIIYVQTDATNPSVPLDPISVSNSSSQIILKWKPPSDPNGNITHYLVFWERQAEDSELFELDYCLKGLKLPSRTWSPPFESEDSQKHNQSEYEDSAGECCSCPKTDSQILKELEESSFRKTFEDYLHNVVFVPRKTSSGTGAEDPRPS
Insulin receptor, sequence (P06213 763-1382 limits assumed): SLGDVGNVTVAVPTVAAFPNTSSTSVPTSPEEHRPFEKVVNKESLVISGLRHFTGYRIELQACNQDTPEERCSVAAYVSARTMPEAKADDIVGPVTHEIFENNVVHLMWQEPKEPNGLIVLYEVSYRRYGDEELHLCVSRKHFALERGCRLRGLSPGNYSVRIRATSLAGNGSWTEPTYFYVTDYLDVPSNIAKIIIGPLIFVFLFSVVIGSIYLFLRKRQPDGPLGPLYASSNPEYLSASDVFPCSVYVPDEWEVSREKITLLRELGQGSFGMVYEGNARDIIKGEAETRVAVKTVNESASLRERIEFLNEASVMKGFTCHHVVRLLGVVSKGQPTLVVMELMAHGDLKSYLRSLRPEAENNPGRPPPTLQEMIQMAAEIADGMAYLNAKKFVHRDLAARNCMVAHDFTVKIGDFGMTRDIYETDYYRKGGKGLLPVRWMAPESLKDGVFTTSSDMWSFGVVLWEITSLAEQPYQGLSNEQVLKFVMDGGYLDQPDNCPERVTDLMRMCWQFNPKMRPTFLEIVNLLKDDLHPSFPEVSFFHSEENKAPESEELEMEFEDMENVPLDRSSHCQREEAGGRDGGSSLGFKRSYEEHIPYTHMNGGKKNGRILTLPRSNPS

[4] = biological target: Glycogen synthase kinase-3 beta (Homo sapiens, UniProt P49841); assay: Inhibition of GSK-3beta (unknown origin) using GST-SLP-76 as peptide substrate incubated for 10 mins in presence of [gamma-33P]ATP by scintillation counter assay
Glycogen synthase kinase-3 beta, sequence (P49841 whole entry): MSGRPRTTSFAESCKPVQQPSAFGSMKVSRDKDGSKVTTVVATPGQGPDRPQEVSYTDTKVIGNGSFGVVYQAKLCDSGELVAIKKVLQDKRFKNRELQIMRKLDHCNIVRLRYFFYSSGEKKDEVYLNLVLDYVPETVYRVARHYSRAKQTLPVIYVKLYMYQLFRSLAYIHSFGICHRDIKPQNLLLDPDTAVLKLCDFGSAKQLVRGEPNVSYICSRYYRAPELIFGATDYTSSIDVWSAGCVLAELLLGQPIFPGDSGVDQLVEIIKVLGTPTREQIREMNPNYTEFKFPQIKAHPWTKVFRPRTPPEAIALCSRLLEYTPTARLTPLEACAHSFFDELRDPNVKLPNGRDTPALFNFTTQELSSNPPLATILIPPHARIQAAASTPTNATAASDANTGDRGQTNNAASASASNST

[5] = biological target: T2, Cytoplasmic tyrosine-protein kinase BMX (Homo sapiens, UniProt P51813); assay: Inhibition of Bmx (unknown origin) using GST-SLP-76 as peptide substrate incubated for 10 mins in presence of [gamma-33P]ATP by scintillation counter assay
T2 sequence (P51813 whole entry): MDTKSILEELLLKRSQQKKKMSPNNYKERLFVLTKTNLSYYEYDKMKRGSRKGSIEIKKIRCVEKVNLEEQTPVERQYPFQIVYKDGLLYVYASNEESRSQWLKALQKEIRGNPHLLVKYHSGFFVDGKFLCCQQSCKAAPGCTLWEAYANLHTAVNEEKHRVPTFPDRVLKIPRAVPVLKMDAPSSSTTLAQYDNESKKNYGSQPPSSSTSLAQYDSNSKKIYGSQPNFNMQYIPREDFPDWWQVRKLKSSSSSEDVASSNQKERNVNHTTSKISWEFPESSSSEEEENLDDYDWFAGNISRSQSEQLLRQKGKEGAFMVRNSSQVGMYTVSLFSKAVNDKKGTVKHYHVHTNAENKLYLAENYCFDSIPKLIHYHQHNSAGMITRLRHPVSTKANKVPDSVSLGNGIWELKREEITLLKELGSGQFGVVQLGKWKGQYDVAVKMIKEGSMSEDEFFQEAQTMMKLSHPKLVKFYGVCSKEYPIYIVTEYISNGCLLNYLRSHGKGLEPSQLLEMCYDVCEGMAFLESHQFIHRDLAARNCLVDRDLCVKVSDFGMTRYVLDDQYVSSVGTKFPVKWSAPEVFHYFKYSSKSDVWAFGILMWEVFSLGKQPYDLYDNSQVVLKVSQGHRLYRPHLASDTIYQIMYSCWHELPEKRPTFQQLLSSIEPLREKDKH

[6] = biological target: T1, Tyrosine-protein kinase ITK/TSK (Homo sapiens); assay: Inhibition of Itk in human Jurkat T cells assessed as inhibition of PLCgamma1 phosphorylation incubated for 20 mins in presence of CD3 antibody G19-4 by Western blotting analysis; assay type: cell-based; settings: dose 0.1-10 µM
[7] = biological target: Mitogen-activated protein kinase 3 (Homo sapiens, UniProt P27361); assay: Inhibition of ERK-1 (unknown origin) using GST-SLP-76 as peptide substrate incubated for 10 mins in presence of [gamma-33P]ATP by scintillation counter assay
Mitogen-activated protein kinase 3, sequence (P27361 whole entry): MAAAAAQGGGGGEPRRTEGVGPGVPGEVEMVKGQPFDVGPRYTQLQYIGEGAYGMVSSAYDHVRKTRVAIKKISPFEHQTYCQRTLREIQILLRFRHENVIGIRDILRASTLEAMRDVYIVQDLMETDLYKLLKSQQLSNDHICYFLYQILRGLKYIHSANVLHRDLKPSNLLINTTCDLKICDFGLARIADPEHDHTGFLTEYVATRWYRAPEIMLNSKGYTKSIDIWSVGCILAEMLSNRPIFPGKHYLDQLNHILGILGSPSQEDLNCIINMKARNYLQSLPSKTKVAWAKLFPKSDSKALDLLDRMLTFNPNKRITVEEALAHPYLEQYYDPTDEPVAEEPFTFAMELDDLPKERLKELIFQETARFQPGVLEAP

[8] = biological target: Inhibitor of nuclear factor kappa-B kinase subunit beta (Homo sapiens, UniProt O14920); assay: Inhibition of IKKbeta (unknown origin) using GST-SLP-76 as peptide substrate incubated for 10 mins in presence of [gamma-33P]ATP by scintillation counter assay
Inhibitor of nuclear factor kappa-B kinase subunit beta, sequence (O14920 whole entry): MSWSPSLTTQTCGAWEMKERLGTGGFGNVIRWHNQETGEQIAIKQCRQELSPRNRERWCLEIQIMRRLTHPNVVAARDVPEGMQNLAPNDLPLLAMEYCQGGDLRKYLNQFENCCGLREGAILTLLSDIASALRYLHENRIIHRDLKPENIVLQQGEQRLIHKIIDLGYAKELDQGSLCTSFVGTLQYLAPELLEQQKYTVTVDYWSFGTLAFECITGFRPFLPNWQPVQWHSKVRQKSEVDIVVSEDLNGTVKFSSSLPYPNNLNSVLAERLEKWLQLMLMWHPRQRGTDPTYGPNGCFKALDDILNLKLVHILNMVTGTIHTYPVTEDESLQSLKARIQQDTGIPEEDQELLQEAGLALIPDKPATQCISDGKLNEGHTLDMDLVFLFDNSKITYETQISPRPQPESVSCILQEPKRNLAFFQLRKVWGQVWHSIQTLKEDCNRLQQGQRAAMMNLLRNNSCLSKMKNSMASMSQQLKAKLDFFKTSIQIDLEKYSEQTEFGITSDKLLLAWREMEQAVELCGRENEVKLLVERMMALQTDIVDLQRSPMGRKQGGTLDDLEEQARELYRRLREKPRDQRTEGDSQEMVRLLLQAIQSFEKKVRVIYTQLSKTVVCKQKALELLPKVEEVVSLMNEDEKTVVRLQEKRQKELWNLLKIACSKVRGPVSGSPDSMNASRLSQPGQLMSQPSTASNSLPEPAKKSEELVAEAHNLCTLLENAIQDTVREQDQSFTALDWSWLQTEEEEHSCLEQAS

[9] = biological target: RAC-alpha serine/threonine-protein kinase (Homo sapiens, UniProt P31749); assay: Inhibition of Akt1 (unknown origin) using GST-SLP-76 as peptide substrate incubated for 10 mins in presence of [gamma-33P]ATP by scintillation counter assay
RAC-alpha serine/threonine-protein kinase, sequence (P31749 whole entry): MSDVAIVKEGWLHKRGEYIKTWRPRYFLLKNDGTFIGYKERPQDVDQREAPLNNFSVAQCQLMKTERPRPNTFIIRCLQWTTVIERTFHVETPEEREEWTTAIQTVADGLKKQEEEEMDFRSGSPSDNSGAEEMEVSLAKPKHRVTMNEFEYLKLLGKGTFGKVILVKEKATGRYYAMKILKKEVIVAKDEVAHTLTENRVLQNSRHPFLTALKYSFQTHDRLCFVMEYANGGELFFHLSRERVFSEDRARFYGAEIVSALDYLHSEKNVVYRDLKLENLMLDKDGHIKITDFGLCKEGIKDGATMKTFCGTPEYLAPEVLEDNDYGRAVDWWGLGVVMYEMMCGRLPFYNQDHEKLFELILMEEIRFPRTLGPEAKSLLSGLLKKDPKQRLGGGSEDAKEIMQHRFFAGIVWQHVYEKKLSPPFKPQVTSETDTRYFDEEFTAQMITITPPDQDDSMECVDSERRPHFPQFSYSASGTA

[10] = biological target: T3, Tyrosine-protein kinase TXK (Homo sapiens, UniProt P42681); assay: Inhibition of Txk (unknown origin) using GST-SLP-76 as peptide substrate incubated for 10 mins in presence of [gamma-33P]ATP by scintillation counter assay
T3 sequence (P42681 whole entry): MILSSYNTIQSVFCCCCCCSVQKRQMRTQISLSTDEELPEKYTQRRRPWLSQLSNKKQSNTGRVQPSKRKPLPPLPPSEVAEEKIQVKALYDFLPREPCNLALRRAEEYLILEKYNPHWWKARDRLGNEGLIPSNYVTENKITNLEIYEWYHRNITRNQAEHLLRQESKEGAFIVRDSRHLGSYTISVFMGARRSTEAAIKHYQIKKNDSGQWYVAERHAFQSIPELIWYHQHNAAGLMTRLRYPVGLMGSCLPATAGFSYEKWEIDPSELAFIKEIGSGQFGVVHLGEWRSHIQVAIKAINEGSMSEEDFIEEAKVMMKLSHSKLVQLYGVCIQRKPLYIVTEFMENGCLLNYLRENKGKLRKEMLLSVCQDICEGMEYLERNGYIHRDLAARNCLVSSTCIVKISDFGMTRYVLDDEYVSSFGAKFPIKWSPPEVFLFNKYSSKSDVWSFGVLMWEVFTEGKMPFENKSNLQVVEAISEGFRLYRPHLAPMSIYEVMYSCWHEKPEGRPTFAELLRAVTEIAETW

[11] = biological target: Tyrosine-protein kinase SYK (Homo sapiens, UniProt P43405); assay: Inhibition of Syk (unknown origin) using GST-SLP-76 as peptide substrate incubated for 10 mins in presence of [gamma-33P]ATP by scintillation counter assay
[12] = test system: T-cell line; assay: Anti-proliferative activity against irradiated APC induced human T cell incubated for 3 days; assay type: functional, cell-based; settings: light or radiation study, 72 h
[13] = biological target: Tyrosine-protein kinase BTK (Homo sapiens, UniProt Q06187); assay: Inhibition of Btk (unknown origin) using GST-SLP-76 as peptide substrate incubated for 10 mins in presence of [gamma-33P]ATP by scintillation counter assay
Tyrosine-protein kinase BTK, sequence (Q06187 whole entry): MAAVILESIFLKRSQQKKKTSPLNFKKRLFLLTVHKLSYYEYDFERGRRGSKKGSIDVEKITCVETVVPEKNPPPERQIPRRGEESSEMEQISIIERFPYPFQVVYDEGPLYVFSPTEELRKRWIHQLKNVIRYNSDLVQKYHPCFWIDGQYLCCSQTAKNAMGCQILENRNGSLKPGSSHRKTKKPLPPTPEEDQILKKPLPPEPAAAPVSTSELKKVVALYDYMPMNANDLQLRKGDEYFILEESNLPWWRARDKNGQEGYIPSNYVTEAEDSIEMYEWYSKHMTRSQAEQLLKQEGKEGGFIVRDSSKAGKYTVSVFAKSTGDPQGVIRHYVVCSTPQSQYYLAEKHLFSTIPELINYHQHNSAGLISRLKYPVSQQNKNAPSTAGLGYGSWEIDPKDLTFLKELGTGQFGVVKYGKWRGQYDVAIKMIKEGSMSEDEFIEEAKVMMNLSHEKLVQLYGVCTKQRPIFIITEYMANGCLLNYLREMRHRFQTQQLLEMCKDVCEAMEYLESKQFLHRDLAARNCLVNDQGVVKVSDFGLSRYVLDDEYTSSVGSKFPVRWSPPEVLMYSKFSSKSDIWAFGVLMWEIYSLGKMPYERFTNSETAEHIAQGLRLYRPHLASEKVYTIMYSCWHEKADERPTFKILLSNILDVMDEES

| inhibition [1] | inhibition [2] | IC50 [3] | IC50 [4] | IC50 [5] | inhibition [6] | IC50 [7] | IC50 [8] | IC50 [9] | IC50 [10] | IC50 [11] | IC50 [13] | SMILES | IC50 [12] |
| --- | --- | --- | --- | --- | --- | --- | --- | --- | --- | --- | --- | --- | --- |
| Active | Active | 4.4 µM | 47.4 µM | > 50 µM | Dose-Dependent Effect | > 50 µM | > 50 µM | > 50 µM | > 50 µM | > 50 µM | > 50 µM | CC(=O)N1CCN(C(=O)c2cc(CSc3cnc(NC(=O)c4ccc(CNC(C)C(C)(C)C)cc4)s3)cc(C)c2C)CC1 (stereo unspecified) | 0.35 µM |
| Active | Active | 1.1 µM | 36 µM | > 50 µM | Dose-Dependent Effect | > 50 µM | > 50 µM | > 50 µM | 11 µM | > 50 µM | 4.1 µM | COc1cc(C)c(Sc2cnc(NC(=O)c3ccc(CNC(C)C(C)(C)C)cc3)s2)cc1C(=O)N1CCN(C(C)=O)CC1 (stereo unspecified) | 0.43 µM |
